Usually IC50 stands for the concentration needed to halve the response being measured.

Where two headings read alike, the source gives them in different places.

For the test, the target named is T1, b-Raf (Homo sapiens, UniProt P15056, V600E).
T1 construct: endogenous in cells; host or cells: A2058 human melanoma cells
Put plainly: Raf cellular assay (phospho-Mek1/2 ELISA in A2058 cells). Type of test: cell-based. As to conditions: human melanoma A2058 cells (b-Raf mutation), Mek1/2 Ser217/221 phosphorylation, 1 hour incubation, read-out: pMEK IC50. How it is done:
Compounds of the present invention were evaluated for potency against b-Raf using a cellular assay as follows. The activity of Raf kinases in cells is determined by measuring the level of phosphorylation of Mek1/2 at serine 217/221, the site phosphorylated by Raf kinases in vivo. Mek1/2 Ser phosphorylation is measured using anti-phospho-Mek1/2 antibodies (Cell Signaling #9121) in an ELISA format.
Healthy growing human melanoma A2058 cells (harboring a b-Raf mutation) are used for the assay. A2058 cells are grown in 10% FBS DMEM medium. When the cells are near 85%+confluence, the cells are rinsed with PBS once and trypsinized with trypsin/EDTA for 3 minutes. The cells are resuspended in 10% FBS DMEM and are centrifuged down at 1000 rpm for 5 minutes. The cells are resuspended in 10% FBS DMEM and counted on a cell counter. The cells are seeded at 50,000 cells/well in a volume of 100 μL/well in 10% FBS DMEM in a 96 well flat-bottom plate. The negative control wells receive only 100 μL of 10% FBS DMEM medium without cells. The plate is incubated overnight in a cell culture incubator with 5% CO2 at 37° C.
On day 2, testing compounds are prepared in 10% FBS DMEM medium and serially diluted at 1:3 for 11 test concentrations. Each concentration of the compounds is tested in duplicate. The compound solutions are added at 25 μL/well to the corresponding wells in the cell plate, and 25 μL/well of the vehicle (0.5% DMSO in 10% FBS DMEM) is added to the negative control wells (no cells) and the positive control wells (cells without compounds). The plate is incubated for 1 hour in a cell culture incubator with 5% CO2 at 37° C. After 1 hour of incubation, the medium is removed, 100 μL/well of cell lysis buffer is added into the cell plate, and the plate is shaken for 15 minutes at room temperature. After 15 minutes, the cell lysates are transferred to an ELISA plate (pre-coated with anti-Mek1 anti-body, Cell Signaling #2352), and the plate is incubated with gentle shaking for 2 hours at room temperature. After 2 hours, the contents of the wells are aspirated and the wells are washed 4 times with wash buffer. 100 μL of phospho-Mek1/2 detection antibody (Cell Signaling #9121) is added into each well and the plate is incubated with gentle shaking for 1 hour at room temperature. After 1 hour, the wells are aspirated and washed 4 times with wash buffer. 100 μL of anti-rabbit IgG HRP-linked antibody (Cell Signaling #7074) is added to each well, and the plate is incubated with gentle shaking for 1 hour at room temperature. After 1 hour, the contents of the wells are aspirated and the wells are washed 4 times with wash buffer. 100 μL of TMB substrate solution (Sigma #T0440) is added into each well, and the plate is incubated with gentle shaking at room temperature for 10 to 20 minutes. After color development, 100 μL of stop solution (1N hydrochloric acid) is added to each well to terminate color development. The plate is read at 450 nm on an ELISA plate reader.

T1 sequence (P15056 whole entry V600E): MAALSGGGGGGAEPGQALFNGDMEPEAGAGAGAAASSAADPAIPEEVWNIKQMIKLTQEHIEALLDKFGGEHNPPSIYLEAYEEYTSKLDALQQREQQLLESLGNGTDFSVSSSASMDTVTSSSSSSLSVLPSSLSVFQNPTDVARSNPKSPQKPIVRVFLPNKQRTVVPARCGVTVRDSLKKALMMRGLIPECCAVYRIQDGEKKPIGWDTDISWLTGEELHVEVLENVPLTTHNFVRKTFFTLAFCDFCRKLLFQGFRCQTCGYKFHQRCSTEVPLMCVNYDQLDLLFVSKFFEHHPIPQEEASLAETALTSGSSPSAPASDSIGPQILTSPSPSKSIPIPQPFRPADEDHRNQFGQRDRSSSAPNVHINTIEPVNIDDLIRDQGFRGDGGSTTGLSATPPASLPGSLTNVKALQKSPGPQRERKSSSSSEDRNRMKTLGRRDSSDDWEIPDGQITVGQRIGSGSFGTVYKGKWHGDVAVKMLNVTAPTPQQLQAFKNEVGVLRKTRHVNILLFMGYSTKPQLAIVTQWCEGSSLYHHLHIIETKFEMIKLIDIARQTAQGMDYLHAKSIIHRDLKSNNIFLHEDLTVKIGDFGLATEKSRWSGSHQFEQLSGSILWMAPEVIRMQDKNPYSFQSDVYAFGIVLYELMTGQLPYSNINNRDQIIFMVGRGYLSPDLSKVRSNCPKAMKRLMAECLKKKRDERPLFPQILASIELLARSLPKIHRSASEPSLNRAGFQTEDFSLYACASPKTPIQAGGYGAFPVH

As for `Cc1cn2cc(-c3nn(C(C)C)cc3-c3ccnc(NC[C@H](C)O)n3)cnc2n1` [Example B-8, (2S)-1-(4-(1-isopropyl-3-(2-methylimidazo[1,2-a]pyrimidin-6-yl)-1H-pyrazol-4-yl)pyrimidin-2-ylamino)propan-2-ol], the IC50 (Table 2) came to 8490 nM. As for `COc1cc(-c2nn(C(C)C)cc2-c2ccnc(NC3CC3)n2)cnc1N` [Example B-16, 4-[3-(6-amino-5-methoxypyridin-3-yl)-1-isopropyl-1H-pyrazol-4-yl]-N-cyclopropylpyrimidin-2-amine], where the note is “Table 3”, the IC50 amounted to 24 nM. `C[C@H](O)CNc1nccc(-c2cn(C3CC(F)(F)C3)nc2-c2cnc3[nH]cc(Cl)c3c2)n1` [Example B-17, (2S)-1-({4-[3-(3-chloro-1H-pyrrolo[2,3-b]pyridin-5-yl)-1-(3,3-difluorocyclobutyl)-1H-pyrazol-4-yl]pyrimidin-2-yl}amino)propan-2-ol]: where the note is “Table 3”, the half-maximal inhibitory concentration (IC50) stood at 61.9 nM. Turning to `Cc1cc(-c2nn(CC(F)F)cc2-c2ccnc(NC[C@H](C)O)n2)cnc1N` [Example B-18, (2S)-1-({4-[3-(6-amino-5-methylpyridin-3-yl)-1-(2,2-difluoroethyl)-1H-pyrazol-4-yl]pyrimidin-2-yl}amino)propan-2-ol], for the setting “Table 3”, the concentration for half-maximal inhibition (IC50) came out at 580 nM.

Take `CC(C)n1cc(-c2ccnc(NCCC#N)n2)c(-c2cnc3[nH]cc(F)c3c2)n1` [Example B-19, 3-({4-[3-(3-fluoro-1H-pyrrolo[2,3-b]pyridin-5-yl)-1-isopropyl-1H-pyrazol-4-yl]pyrimidin-2-yl}amino)propanenitrile]: the IC50 (Table 3) was found to be 2.71 nM.

For the compound `CC(C)n1cc(-c2ccnc(NCCC#N)n2)c(-c2cnc3c(c2)CCN3)n1` [Example B-20, 3-({4-[3-(2,3-dihydro-1H-pyrrolo[2,3-b]pyridin-5-yl)-1-isopropyl-1H-pyrazol-4-yl]pyrimidin-2-yl}amino)propanenitrile], the IC50 (Table 3) is 6.64 nM. Turning to `N#CCCNc1nccc(-c2cn(CC(F)F)nc2-c2cnc3[nH]cc(F)c3c2)n1` [Example B-21, 3-({4-[1-(2,2-difluoroethyl)-3-(3-fluoro-1H-pyrrolo[2,3-b]pyridin-5-yl)-1H-pyrazol-4-yl]pyrimidin-2-yl}amino)propanenitrile], where the note is “Table 3”, the concentration for half-maximal inhibition (IC50) was found to be 1.95 nM. For the compound `CC(C)(CO)n1cc(-c2ccnc(NCCC#N)n2)c(-c2cnc3c(c2)CCN3)n1` [Example B-22, 3-({4-[3-(2,3-dihydro-1H-pyrrolo[2,3-b]pyridin-5-yl)-1-(2-hydroxy-1,1-dimethylethyl)-1H-pyrazol-4-yl]pyrimidin-2-yl}amino)propanenitrile], the IC50 (Table 3) is 26.3 nM.

As for `Cc1c[nH]c2ncc(-c3nn(C(C)(C)CO)cc3-c3ccnc(NCCC#N)n3)cc12` [Example B-23, 3-({4-[1-(2-hydroxy-1,1-dimethylethyl)-3-(3-methyl-1H-pyrrolo[2,3-b]pyridin-5-yl)-1H-pyrazol-4-yl]pyrimidin-2-yl}amino)propanenitrile], for the setting “Table 3”, the half-maximal inhibitory concentration (IC50) is 0.428 nM.

Take `CC(C)(CO)n1cc(-c2ccnc(NCCC#N)n2)c(-c2cnc3[nH]cc(F)c3c2)n1` [Example B-24, 3-({4-[3-(3-fluoro-1H-pyrrolo[2,3-b]pyridin-5-yl)-1-(2-hydroxy-1,1-dimethylethyl)-1H-pyrazol-4-yl]pyrimidin-2-yl}amino)propanenitrile]: the IC50 (Table 3) turned out to be 3.26 nM. Consider `CC(C)(CO)n1cc(-c2ccnc(NCCC#N)n2)c(-c2cnc3[nH]ccc3c2)n1` [Example B-25, 3-({4-[1-(2-hydroxy-1,1-dimethylethyl)-3-(1H-pyrrolo[2,3-b]pyridin-5-yl)-1H-pyrazol-4-yl]pyrimidin-2-yl}amino)propanenitrile], for which the IC50 (Table 3) is 5.98 nM.

Consider `CC(=O)Nc1cc(C)c(-c2nn(CC(F)F)cc2-c2ccnc(NCCC#N)n2)cn1` [Example B-26, N-{5-[4-{2-[(2-cyanoethyl)amino]pyrimidin-4-yl}-1-(2,2-difluoroethyl)-1H-pyrazol-3-yl]-4-methylpyridin-2-yl}acetamide], for which, under “Table 3”, the IC50 is 2200 nM.

In the case of `O=S(=O)(C1CC1)N1CCC(Nc2nccc(-c3cn(CC(F)F)nc3-c3cnc4[nH]ccc4c3)n2)CC1` [Example B-27, N-[1-(cyclopropylsulfonyl)piperidin-4-yl]-4-[1-(2,2-difluoroethyl)-3-(1H-pyrrolo[2,3-b]pyridin-5-yl)-1H-pyrazol-4-yl]pyrimidin-2-amine], the IC50 (Table 3) was determined as 184 nM. With `Cc1ccc(-c2nn(CC(F)F)cc2-c2ccnc(NCCC#N)n2)cn1` [Example B-28, 3-({4-[1-(2,2-difluoroethyl)-3-(6-methylpyridin-3-yl)-1H-pyrazol-4-yl]pyrimidin-2-yl}amino)propanenitrile], the IC50 (Table 3) turned out to be 538 nM. In the case of `C[C@H](O)CNc1nccc(-c2cn(CC(F)F)nc2-c2ccnc3[nH]ccc23)n1` [Example B-29, (2S)-1-({4-[1-(2,2-difluoroethyl)-3-(1H-pyrrolo[2,3-b]pyridin-4-yl)-1H-pyrazol-4-yl]pyrimidin-2-yl}amino)propan-2-ol], for the setting “Table 3”, the concentration for half-maximal inhibition (IC50) was 9390 nM. Same read-out and setting: next, `COc1nc(-c2nn(C(C)(C)C)cc2-c2ccnc(NCCC#N)n2)cnc1N` [Example B-30, 3-({4-[3-(5-amino-6-methoxypyrazin-2-yl)-1-tert-butyl-1H-pyrazol-4-yl]pyrimidin-2-yl}amino)propanenitrile]: 0.2 nM; `COc1nc(-c2nn(C(C)C)cc2-c2ccnc(NCCC#N)n2)cnc1N` [Example B-31, 3-({4-[3-(5-amino-6-methoxypyrazin-2-yl)-1-isopropyl-1H-pyrazol-4-yl]pyrimidin-2-yl}amino)propanenitrile]: 0.5 nM. For the compound `COc1nc(-c2nn(CC(F)F)cc2-c2ccnc(NCCC#N)n2)cnc1N` [Example B-32, 3-({4-[3-(5-amino-6-methoxypyrazin-2-yl)-1-(2,2-difluoroethyl)-1H-pyrazol-4-yl]pyrimidin-2-yl}amino)propanenitrile], the IC50 (Table 3) came to 1 nM.

On to `N#CCCNc1nccc(-c2cn(CC(F)F)nc2-c2cnc3[nH]ccc3c2)n1` [Example B-33, 3-({4-[1-(2,2-difluoroethyl)-3-(1H-pyrrolo[2,3-b]pyridin-5-yl)-1H-pyrazol-4-yl]pyrimidin-2-yl}amino)propanenitrile], for which, where the note is “Table 3”, the IC50 amounted to 4.48 nM.

In the case of `C[C@H](O)CNc1nccc(-c2cn(C(C)(C)C#N)nc2-c2cnc3[nH]cc(Cl)c3c2)n1` [Example B-34, 2-[3-(3-chloro-1H-pyrrolo[2,3-b]pyridin-5-yl)-4-(2-{[(2S)-2-hydroxypropyl]amino}pyrimidin-4-yl)-1H-pyrazol-1-yl]-2-methylpropanenitrile], the IC50 (Table 3) came to 29.5 nM. For `C[C@H](O)CNc1nccc(-c2cn(CC(F)F)nc2-c2cnc3ccn(C)c3c2)n1` [Example B-35, (2S)-1-({4-[1-(2,2-difluoroethyl)-3-(1-methyl-1H-pyrrolo[3,2-b]pyridin-6-yl)-1H-pyrazol-4-yl]pyrimidin-2-yl}amino)propan-2-ol], the IC50 (Table 3) was 193 nM. With `N#CCCNc1nccc(-c2cn(CC(F)F)nc2-c2cnc3cc[nH]c3c2)n1` [Example B-36, 3-({4-[1-(2,2-difluoroethyl)-3-(1H-pyrrolo[3,2-b]pyridin-6-yl)-1H-pyrazol-4-yl]pyrimidin-2-yl}amino)propanenitrile], the IC50 (Table 3) worked out at 458 nM. As to `Cn1ccc2ncc(-c3nn(C(C)(C)CO)cc3-c3ccnc(NCCC#N)n3)cc21` [Example B-37, 3-({4-[1-(2-hydroxy-1,1-dimethylethyl)-3-(1-methyl-1H-pyrrolo[3,2-b]pyridin-6-yl)-1H-pyrazol-4-yl]pyrimidin-2-yl}amino)propanenitrile], for the setting “Table 3”, the IC50 worked out at 44 nM.

In the case of `Cn1ccc2ncc(-c3nn(CC(F)F)cc3-c3ccnc(NCCC#N)n3)cc21` [Example B-38], the 50% inhibitory concentration (IC50) (Table 3) was 18.7 nM. With `CC(C)n1cc(-c2ccnc(NC[C@H](C)O)n2)c(-c2cnc(N)c(OC(F)F)c2)n1` [Example B-39, (2S)-1-[(4-{3-[6-amino-5-(difluoromethoxy)-pyridin-3-yl]-1-isopropyl-1H-pyrazol-4-yl}pyrimidin-2-yl)amino]propan-2-ol], the IC50 (Table 3) was found to be 87.8 nM.

Source of the values: patent US7772246B2 (Pfizer Inc., priority 2007, dated 2010).
